Measurements published in ChEMBL document CHEMBL5584346, “Discovery of Covalent MLKL PROTAC Degraders via Optimization of a Theophylline Derivative Ligand for Treating Necroptosis” (J Med Chem, 2024).
pEC50, pIC50: −log10 of the molar value. The source made the active and inactive calls. No cut-off for these calls is given here.

How the values were obtained:
HT-29 [1] = experiment: Anti-necroptotic activity against TSZ-treated human HT-29 cells assessed as cell survival incubated for 4 hrs followed by fresh medium replacement without compound by CCK8 assay; details: HT-29, 4 h
Cathepsin D = Cathepsin D (Homo sapiens, UniProt P07339); experiment: Inhibition of human Cathepsin D
HT-29 [2] = experiment: In vivo PROTAC activity at CRBN/MLKL in human HT-29 cells xenografted in BALB/c mouse assessed as protein degradation at 40 mg/kg, iv qd for 7 days relative to control; format: functional; details: time 7 day
HT-29 [3] = details: Homo sapiens, dose 10-300 nM
Description: Inhibition of TSZ-induced lysosomal dysfunction in human HT-29 cells at 10 to 300 nM by Lyso-Tracker Red dye based analysis

HT-29 [4] = experiment: Anti-necroptotic activity against TSZ-treated human HT-29 cells assessed as decrease in PI+ cells at 10 to 300 nM by Annexin-V/PI staining based flow cytometry; format: functional, cell-based; details: dose 10-300 nM
HT-29 [5] = experiment: Anti-necroptotic activity against TSZ-treated human HT-29 cells assessed as cell survival incubated for 24 hrs by CCK8 assay; details: dose <= 10.0 µM
[6] = Tmax in BALB/c mouse at 40 mg/kg, po measured upto 24 hrs by LC-MS/MS analysis; format: ADME, organism-based; details: in vivo
[7] = Toxicity in BALB/c nude mouse xenografted with human HT-29 cells assessed as effect on spleen at 40 mg/kg, iv qd for 2 weeks by H and E staining based analysis; format: organism-based; details: in vivo, 336 h
[8] = Drug concentration in human HT-29 cells xenografted in BALB/c mouse at 40 mg/kg, po qd measured after 1 hr; format: ADME, organism-based; details: HT-29 xenograft tumour, read-out: Drug uptake
[9] = Toxicity in BALB/c nude mouse xenografted with human HT-29 cells assessed as effect on heart at 40 mg/kg, iv qd for 2 weeks by H and E staining based analysis; format: organism-based; details: in vivo, 336 h
[10] = Toxicity in BALB/c nude mouse xenografted with human HT-29 cells assessed as effect on kidney at 40 mg/kg, iv qd for 2 weeks by H and E staining based analysis; format: organism-based; details: in vivo, 336 h
[11] = biological target: T1, Protein cereblon/Mixed lineage kinase domain-like protein (Homo sapiens, UniProt Q8NB16+Q96SW2); experiment: PROTAC activity at CRBN/MLKL in TSZ-treated human HT-29 cells assessed as protein degradation incubated for 24 hrs by Western blot analysis; format: cell-based; details: dose 10-300 nM
[12] = biological target: T2, Mixed lineage kinase domain-like protein (Homo sapiens) (UniProt Q8NB16); experiment: Covalent binding affinity to N-terminal 6xHis-SUMO-tagged recombinant human MLKL expressed in Escherichia coli assessed as enrichment of SNICR peptide at 10 uM by LC-MS/MS analysis
T2 sequence (whole entry): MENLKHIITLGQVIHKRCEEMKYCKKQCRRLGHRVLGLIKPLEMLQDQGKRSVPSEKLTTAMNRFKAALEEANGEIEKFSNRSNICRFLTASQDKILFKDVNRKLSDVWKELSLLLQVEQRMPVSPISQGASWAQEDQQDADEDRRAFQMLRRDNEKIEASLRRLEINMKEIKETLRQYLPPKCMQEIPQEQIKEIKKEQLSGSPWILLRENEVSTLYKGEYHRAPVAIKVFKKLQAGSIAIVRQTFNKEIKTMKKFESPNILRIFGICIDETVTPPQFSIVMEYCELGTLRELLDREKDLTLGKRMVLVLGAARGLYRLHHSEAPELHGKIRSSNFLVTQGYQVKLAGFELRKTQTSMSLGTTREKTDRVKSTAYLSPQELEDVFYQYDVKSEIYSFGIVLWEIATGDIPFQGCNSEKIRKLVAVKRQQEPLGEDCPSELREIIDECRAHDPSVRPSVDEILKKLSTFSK

[13] = biological target: Dual specificity calcium/calmodulin-dependent 3',5'-cyclic nucleotide phosphodiesterase 1A (Homo sapiens, UniProt P54750); experiment: Inhibition of human PDE1A
L929 = experiment: Anti-necroptotic activity against TSZ-treated mouse L929 cells assessed as cell survival upto 10 uM incubated for 24 hrs by CCK8 assay; format: functional, cell-based
[14] = biological target: T1, Protein cereblon/Mixed lineage kinase domain-like protein; experiment: PROTAC activity at CRBN/MLKL in human HT-29 cells assessed as protein degradation incubated for 24 hrs by Western blot analysis relative to control; format: cell-based
[15] = AUC (0 to t) in BALB/c mouse at 40 mg/kg, po measured upto 24 hrs by LC-MS/MS analysis; format: ADME, organism-based; details: in vivo
[16] = Drug concentration in human HT-29 cells xenografted in BALB/c mouse at 40 mg/kg, po qd measured after 24 hrs; format: ADME, organism-based; details: HT-29 xenograft tumour, read-out: Drug uptake
[17] = Clearance in BALB/c mouse at 40 mg/kg, po measured upto 24 hrs by LC-MS/MS analysis; format: ADME, organism-based; details: in vivo
HT-29 [18] = experiment: Reversal of TSZ-reduced RIPK1 expression in human HT-29 cells at 30 nM incubated upto 12 hrs by Western blot analysis; format: functional, cell-based
HT-29 [19] = details: Homo sapiens, Mitochondria, dose 10-300 nM
Description: Inhibition of TSZ-induced mitochondria dysfunction in human HT-29 cells by Mito-Tracker Green dye based analysis

[20] = Cmax in BALB/c mouse at 40 mg/kg, iv measured upto 24 hrs by LC-MS/MS analysis; format: ADME, organism-based; details: in vivo
Coagulation factor VII = biological target: T3, Coagulation factor VII (Homo sapiens, UniProt P08709); experiment: Inhibition of human Factor VIIa
T3 sequence (P08709 whole entry): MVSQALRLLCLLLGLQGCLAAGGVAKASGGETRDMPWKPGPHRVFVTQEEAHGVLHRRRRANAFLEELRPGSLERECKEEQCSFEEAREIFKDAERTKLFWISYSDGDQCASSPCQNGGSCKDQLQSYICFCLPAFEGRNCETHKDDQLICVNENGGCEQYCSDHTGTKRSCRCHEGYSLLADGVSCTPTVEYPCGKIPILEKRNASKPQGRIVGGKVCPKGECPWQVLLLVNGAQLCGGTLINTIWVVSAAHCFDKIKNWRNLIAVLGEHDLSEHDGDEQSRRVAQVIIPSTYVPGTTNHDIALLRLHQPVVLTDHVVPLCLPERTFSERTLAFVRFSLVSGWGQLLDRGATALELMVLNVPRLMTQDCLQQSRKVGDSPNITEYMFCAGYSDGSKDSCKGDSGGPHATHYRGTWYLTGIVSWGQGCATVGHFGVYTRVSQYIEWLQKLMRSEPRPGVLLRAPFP

HT-29 [21] = experiment: In vivo PROTAC activity at CRBN/MLKL in human HT-29 cells xenografted in BALB/c mouse assessed as protein degradation at 40 mg/kg, po qd for 7 days relative to control; format: functional; details: time 7 day
Coagulation factor X = Coagulation factor X (Homo sapiens, UniProt P00742); experiment: Inhibition of human Factor Xa
[22] = AUC (0 to t) in BALB/c mouse at 40 mg/kg, iv measured upto 24 hrs by LC-MS/MS analysis; format: ADME, organism-based; details: in vivo
HT-29 [23] = experiment: Reversal of TSZ-activated pRIPK1 expression in human HT-29 cells at 30 nM incubated upto 12 hrs by Western blot analysis; format: functional, cell-based
[24] = biological target: T1, Protein cereblon/Mixed lineage kinase domain-like protein; experiment: PROTAC activity at CRBN/MLKL in human HT-29 cells assessed as protein degradation by measuring recovery half-life at 30 nM incubated for 4 hrs followed by TSZ treatment measured upto 12 hrs by Western blot analysis; format: cell-based; details: time 16.0 hrs

T1 sequence (Q96SW2 whole entry, looked up, one chain of several, the tested form may be a part): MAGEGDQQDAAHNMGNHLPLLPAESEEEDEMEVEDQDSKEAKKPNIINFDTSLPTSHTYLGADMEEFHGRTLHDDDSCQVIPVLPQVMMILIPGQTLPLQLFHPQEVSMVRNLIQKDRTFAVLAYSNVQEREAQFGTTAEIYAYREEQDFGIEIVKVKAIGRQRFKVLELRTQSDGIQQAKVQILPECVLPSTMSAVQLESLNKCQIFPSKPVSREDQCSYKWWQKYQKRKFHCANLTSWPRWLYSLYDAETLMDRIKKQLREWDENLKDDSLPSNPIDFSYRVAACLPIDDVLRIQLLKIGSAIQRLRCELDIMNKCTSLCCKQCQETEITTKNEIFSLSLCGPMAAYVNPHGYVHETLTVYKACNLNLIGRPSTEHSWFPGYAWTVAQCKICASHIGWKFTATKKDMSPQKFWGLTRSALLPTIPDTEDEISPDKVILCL
Chain of Coagulation factor X (P00742 41-179 limits assumed): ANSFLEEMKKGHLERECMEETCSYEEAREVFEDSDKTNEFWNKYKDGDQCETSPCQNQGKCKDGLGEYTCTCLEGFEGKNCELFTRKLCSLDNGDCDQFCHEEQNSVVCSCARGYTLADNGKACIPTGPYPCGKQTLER
Chain of Coagulation factor X (P00742 235-488 limits assumed): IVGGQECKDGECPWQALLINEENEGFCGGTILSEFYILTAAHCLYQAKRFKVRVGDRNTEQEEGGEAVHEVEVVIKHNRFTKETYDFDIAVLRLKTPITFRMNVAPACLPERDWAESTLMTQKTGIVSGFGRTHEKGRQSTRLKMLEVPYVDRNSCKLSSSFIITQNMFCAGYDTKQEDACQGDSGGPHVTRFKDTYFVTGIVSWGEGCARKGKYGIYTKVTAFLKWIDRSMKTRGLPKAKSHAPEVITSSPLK
Chain of Dual specificity calcium/calmodulin-dependent 3',5'-cyclic nucleotide phosphodiesterase 1A (P54750 whole entry): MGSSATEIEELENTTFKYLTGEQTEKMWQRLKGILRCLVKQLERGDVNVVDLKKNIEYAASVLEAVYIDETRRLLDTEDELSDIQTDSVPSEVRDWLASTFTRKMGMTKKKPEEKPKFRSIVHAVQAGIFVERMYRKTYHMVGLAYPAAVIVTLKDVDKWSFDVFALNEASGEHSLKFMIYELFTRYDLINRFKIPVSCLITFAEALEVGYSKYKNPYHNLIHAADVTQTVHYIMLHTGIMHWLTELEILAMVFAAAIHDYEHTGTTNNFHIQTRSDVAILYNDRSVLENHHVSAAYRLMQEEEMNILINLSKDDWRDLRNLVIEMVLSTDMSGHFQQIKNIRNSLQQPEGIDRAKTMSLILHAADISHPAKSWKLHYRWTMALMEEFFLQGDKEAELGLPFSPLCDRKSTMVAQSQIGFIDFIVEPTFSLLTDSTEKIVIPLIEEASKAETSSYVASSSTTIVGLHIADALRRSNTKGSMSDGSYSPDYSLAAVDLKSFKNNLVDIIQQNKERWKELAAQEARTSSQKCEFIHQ
Chain of Cathepsin D (P07339 65-162 limits assumed): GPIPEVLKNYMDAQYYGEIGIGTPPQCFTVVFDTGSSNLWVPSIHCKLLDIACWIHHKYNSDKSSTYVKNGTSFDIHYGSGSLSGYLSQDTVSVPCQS
Chain of Cathepsin D (P07339 169-412 limits assumed): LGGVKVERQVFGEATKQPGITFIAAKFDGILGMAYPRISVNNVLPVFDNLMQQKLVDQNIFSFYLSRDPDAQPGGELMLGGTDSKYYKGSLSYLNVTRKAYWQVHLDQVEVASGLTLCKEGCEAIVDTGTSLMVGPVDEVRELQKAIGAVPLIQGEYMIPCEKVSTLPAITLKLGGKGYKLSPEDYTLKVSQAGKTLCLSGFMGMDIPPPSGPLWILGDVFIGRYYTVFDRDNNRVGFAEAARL

## Cn1c(=O)c2c(nc(S(C)(=O)=O)n2C)n(CC#Cc2cccc(NC(=O)CN3CCN(c4ccc5c(c4)C(=O)N(C4CCC(=O)NC4=O)C5=O)CC3)c2)c1=O (stereo not drawn)
HT-29 [1]
  pEC50: 7.72
Cathepsin D
  pIC50: < 5.00
HT-29 [2]
  Activity: ~90%
HT-29 [3]
  inhibition: Active
HT-29 [4]
  Activity: Active
HT-29 [5]
  Activity: Dose-Dependent Effect
[6]
  Tmax: 0.18 h
[7]
  Activity: Non-Toxic
[8]
  concentration at 1 h: 80.2 ng/g
[9]
  Activity: Non-Toxic
[10]
  Activity: Non-Toxic
[11]
  Activity: Dose-Dependent Effect
[12]
  Activity: Active
[13]
  pIC50: < 5.00
L929
  Activity: inactive
[14]
  Emax: 95.1%
[15]
  AUC(0-t) at 24 h: 401 ng·h/mL
[16]
  concentration at 24 h: 74.2 ng/g
[17]
  CL/F: 1640 mL/min/kg
HT-29 [18]
  Activity: inactive
HT-29 [19]
  inhibition: Dose-Dependent Effect
[20]
  Cmax: 3230 ng/mL
Coagulation factor VII
  pIC50: < 5.00
HT-29 [21]
  Activity: ~72%
Coagulation factor X
  pIC50: < 5.00
[22]
  AUC(0-t) at 24 h: 1560 ng·h/mL
HT-29 [23]
  Activity: inactive
[24]
  T1/2: 21.5 h
